{"source": "patent US20220202899A1", "about": "“COMPOSITION FOR PREVENTION OR TREATMENT OF HAIR LOSS INCLUDING HAPLN1” (HAPLNSCIENCE INC., priority 2019, published 2022)", "key": {"TβRII": {"system": "TβRII", "assay": "TβRII protein in human hair germinal matrix cells deficient in endogenous HA (4-MU)", "format": "cell-based", "settings": "4-MU-treated cells; HAPLN1 25 ng/mL; TGF-β2 2 ng/mL", "method": "(§1) 4-MU (4-methylumbelliferone) is an inhibitor of HA-producing hyaluronan synthase 2 (HAS2), which produces HA. In order to confirm the effect of HA produced in cells, HA production in cells was inhibited using 4-MU.\n(§2) The human hair germinal matrix cells, in which the endogenous HA was inhibited by treating 4-MU, were dispensed into a poly-D-lysine 6-well plate at a concentration of 5.0×10^4 per well and cultured for 24 hours. After 24 hours, the medium was removed and replaced with a new serum-free medium. HAPLN1 was treated with 25 ng/mL, and after 1 hour, TGF-β2 (2 ng/mL) was treated. After 23 hours, cells were collected, a lysis buffer (25 mM Tris-HCl, 1 mM EDTA, 0.1% Triton-X100, phosphatase inhibitor, and protease inhibitor) was added, and all the cells were broken through sonication. HAS2 and TβRII in the sample were measured using Western blotting. The optical density of each of HAS2 and TβRII was compared to that of GAPDH using a densitometer."}, "HAS2": {"system": "HAS2", "assay": "HAS2 protein in human hair germinal matrix cells deficient in endogenous HA (4-MU)", "format": "cell-based", "settings": "4-MU-treated cells; HAPLN1 25 ng/mL; TGF-β2 2 ng/mL", "method": "as §1, §2"}}, "data": [{"compound": "Cc1cc(=O)oc2cc(O)ccc12", "note": "[4-MU, 4-methylumbelliferone, reference compound]", "values": [{"measurement": "TβRII level", "setting": "TβRII", "value": "decreased"}, {"measurement": "HAS2 level", "setting": "HAS2", "value": "decreased"}]}]}
